Source: patent US20070208069A1, “PHARMACEUTICAL FORMULATIONS OF AN ANHYDROUS CRYSTAL FORM OF 2-(3-FLUORO-4-HYDROXYPHENYL)-7-VINYL-1,3-BENZOXAZOL-5-OL” (Wyeth, priority 2006, published 2007)

Legend:
Type in all cases: physicochemical
[1] = Dynamic vapor sorption (hygroscopicity); settings: for DVS gain: 0–90% RH
Source text: Dynamic Vapor Sorption (Allentown, Pa.) was used to measure the hygroscopicity of the anhydrate and monohydrate of the invention (see FIGS. 6 and 7). The step conditions were three hours each at 0%, 30%, 52.5%, 75% and 90% RH, two full cycles.

[2] = Solid-state stability of crystal forms (XRPD, TGA); settings: for Long term crystal form stability (XRPD, TGA): three months (monohydrate also 40° C. without humidity control)
Experimental: […] At room temperature, humidity was maintained at 0% RH. Humidity was not controlled for the higher temperatures.
The samples were analyzed by XRPD and TGA.
(§1) Non-micronized samples of monohydrate and anhydrate were stored at 40° C./75% RH for three months. The monohydrate was also stored at 40° C. without humidity control. During the three months, the samples were checked after two weeks, one month, two months, and three months.

[3] = Chemical stability on storage (HPLC); settings: non-micronized, 40° C./75% RH, three months
Experimental: as §1

[4] = Water solubility of the two crystal forms

| SMILES | Hygroscopicity (DVS), in words [1] | DVS gain [1] | Crystal form stability (XRPD) ([2]; micronized, 25° C./60% RH, three months) | Crystal form stability (XRPD) ([2]; micronized, 40° C./75% RH, one month) | Crystal form stability (XRPD) ([2]; non-micronized, 40° C./75% RH) | Long term crystal form stability (XRPD, TGA) ([2]; non-micronized, 40° C./75% RH) | Long term chemical stability (HPLC) [3] | Water solubility compared between forms, in words [4] | Medium term stability (XRPD, TGA) ([2]; 56° C., humidity not controlled, one week) | Medium term stability (XRPD, TGA) ([2]; 70° C., 1 day) | Medium term stability (XRPD, TGA) ([2]; 70° C., 4 days) | Medium term stability (XRPD, TGA) ([2]; 70° C., 7 days) | Short term stability (XRPD) ([2]; 70° C., one hour) | Short term stability (XRPD) ([2]; 90° C., one half hour) | Short term stability (XRPD) ([2]; 90° C., one hour) | Medium term stability (XRPD, TGA) ([2]; room temperature, 0% RH, one week) |
| --- | --- | --- | --- | --- | --- | --- | --- | --- | --- | --- | --- | --- | --- | --- | --- | --- |
| C=Cc1cc(O)cc2nc(-c3ccc(O)c(F)c3)oc12 [Anhydrate, 2-(3-fluoro-4-hydroxyphenyl)-7-vinyl-1,3-benzoxazol-5-ol] | largely non-hygroscopic | 0.2% gain (0–90% RH) | did not transform to the monohydrate | did partially transform to the monohydrate | did not show any obvious transformation | did not transform | chemically stable | – | – | – | – | – | – | – | – | – |
| C=Cc1cc(O)cc2nc(-c3ccc(O)c(F)c3)oc12 [Monohydrate, 2-(3-fluoro-4-hydroxyphenyl)-7-vinyl-1,3-benzoxazol-5-ol] | largely non-hygroscopic | 0.1% gain (0–90% RH) | – | – | – | did not transform | chemically stable | significantly lower solubility than the anhydrate | no obvious dehydration | no obvious hydration | partially dehydrated | mostly dehydrated | stable | partially dehydrated | completely dehydrated | no obvious dehydration |
